Converted amounts (≈) assume the structure as drawn.
Experiments:
[1] = test system: Diplococcus pneumonae; test: in vitro minimal inhibitory concentration, two-fold serial dilutions in trypticase soy broth; format: cell-based; settings: 24 hours at 37° C.
Description: (§1) The following example illustrates the in vitro activity of the compounds of this invention.
(§2) Two-fold serial dilutions of the test compounds are made in trypticase soy broth. A series of tubes of broth containing different concentrations of the test compounds are inoculated with the particular bacterial culture used for in vitro activity. The inoculated tubes are examined for the inhibition of bacterial growth after 24 hours of incubation at 37° C. The following table summarizes the minimal inhibitory concentration (MIC) for various bacterial test cultures using the following compounds: […]

[2] = test system: Escherichia coli; test: as above; format: cell-based; settings: 24 hours at 37° C.
Description: as §1, §2

[3] = test system: Salmonella schottmuelleri; test: as above; format: cell-based; settings: 24 hours at 37° C.
Description: as §1, §2

[4] = test system: Staphylococcus aureus; test: as above; format: cell-based; settings: 24 hours at 37° C.
Description: as §1, §2

[5] = test system: Streptococcus pyogenes; test: as above; format: cell-based; settings: 24 hours at 37° C.
Description: as §1, §2

[6] = test system: Streptococcus pyogenes; test: in vivo protection of mice challenged with a fatal bacterial infection; settings: sc, subcutaneous, 1 and 4 hours after challenge, dose per treatment protecting fifty percent
Description: (§3) The following example illustrates the in vivo activity of the compounds of this invention.
(§4) Several groups of 10 mice are challenged with a fatal bacterial infection. Various dose levels of the test compound are administered orally or subcutaneously to separate groups of these animals 1 and 4 hours after challenge. After three of four days, depending upon the test organism, the number of survivors are recorded at each dose level and the dose required per treatment to protect fifty percent of the infected mice (ED50) is calculated by the method described by Reed and Muench, Amer. J. Hyg. 27, 493-497 (1938).

[7] = test system: Diplococcus pneumoniae; test: as above; settings: Streptococcus pneumoniae, 1 and 4 hours after challenge, dose per treatment protecting fifty percent
Description: as §3, §4

[8] = test system: Salmonella schotmuelleri; test: as above; settings: sc, subcutaneous, 1 and 4 hours after challenge, dose per treatment protecting fifty percent
Description: as §3, §4

| Structure (SMILES) | MIC [1] [µg/mL] | MIC [2] [µg/mL] | MIC [3] [µg/mL] | MIC [4] [µg/mL] | MIC [5] [µg/mL] | ED50 [6] [mg/kg] | ED50 ([7]; po, per os) [mg/kg] | ED50 ([7]; sc, subcutaneous) [mg/kg] | ED50 [8] [mg/kg] |
| --- | --- | --- | --- | --- | --- | --- | --- | --- | --- |
| CC(=O)OCC1=C(C(=O)O)N2C(=O)C(NC(=O)CN=C3SCCS3)C2SC1 (stereo not drawn) [Compound A, 7-[2-(1,3-dithiolan-2-imino)acetylamino]cephalosporanic acid] | 0.1 (≈ 0.232 µM) | 50 (≈ 116 µM) | 12.5 (≈ 29 µM) | 0.4 (≈ 0.927 µM) | 0.4 (≈ 0.927 µM) | 15.3 | – | – | – |
| CC1=C(C(=O)O)N2C(=O)C(NC(=O)C(N=C3SCCS3)c3ccccc3)C2SC1 (stereo not drawn) [Compound B, 7-[2-(1,3-dithiolan-2-imino)-2-phenylacetylamino]desacetoxycephalosporanic acid] | 12.5 (≈ 27.8 µM) | > 100 | > 100 | 25 (≈ 55.6 µM) | 6.2 (≈ 13.8 µM) | 48 | – | – | – |
| CC1=C(C(=O)O)N2C(=O)C(NC(=O)C(N)c3ccc(N=C4SCCS4)cc3)C2SC1 (stereo not drawn) [Compound C, 7-[2-amino-2-[p-(1,3-dithiolan-2-imino)phenyl]acetylamino]desacetoxycephalosporanic acid] | ≤ 0.05 | > 100 | > 100 | 3.1 (≈ 6.67 µM) | ≤ 0.05 | 0.5 | 4.1 | 5 | > 100 |
| CC(=O)OCC1=C(C(=O)O)N2C(=O)C(NC(=O)C(O)c3ccc(N=C4SCCS4)cc3)C2SC1 (stereo not drawn) [Compound D, 7-[2-[p-(1,3-dithiolan-2-imino)phenyl]-2-hydroxyacetylamino]cephalosporanic acid] | < 0.05 | 200 (≈ 382 µM) | 50 (≈ 95.5 µM) | 0.4 (≈ 0.764 µM) | < 0.05 | 2.2 | – | – | – |

Source: patent US4172941A, “7-[2-[ω-(1,3-Dit hiolan-2-imino)substituted]-acetylamino]cephalosporanic acid derivatives” (Richardson-Merrell Inc., priority 1978, dated 1979)
